In test [1] the target is T1, Fatty acid synthase (Homo sapiens, UniProt P49327). As to the kind of experiment: FAS thioesterase domain inhibitors, dose response, biochemical, kinetic fluorescence intensity (AID 624326).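 Also: rate of fluorescence rise from hydrolysis of a fluorogenic O-methyl fluorescein ester substrate.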 The test is classed as functional.
Test [2] deals with G-protein coupled receptor 55 (Homo sapiens, UniProt Q9Y2T6). As to the kind of experiment: GPR55 antagonists blocking LPI-driven arrestin recruitment, primary screen, imaging, U2OS, beta-arrestin-GFP, LPI agonist (AID 2013).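 Also: antagonist potency measured as reduced agonist-driven arrestin aggregation.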 The test is classed as functional.
Test [3] concerns the target T1, Fatty acid synthase. Nature of the test: FAS thioesterase domain inhibitors, dose response, biochemical, endpoint fluorescence intensity, uHTS hits (AID 624327).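 Also: fluorescence from hydrolysis of an O-methyl fluorescein acyl ester substrate by the enzyme.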 The test is classed as functional.
In test [4] the test system is Streptococcus sp. 'group A'. Nature of the test: growth inhibition of control SK(-) GAS strain, dose response, counter-screen for streptokinase expression inhibitor project, luminescence, kanamycin, BacTiterGlo, confirmation (AID 1900). The test is classed as functional, organism-based. For orientation: Counterscreens check selectivity or assay interference.
Test [5] addresses T2, Beta-galactosidase (Escherichia coli, UniProt Q8VNN2). The test is classed as functional.
In test [6] the test system is Streptococcus. As to the kind of experiment: Group A Streptococcus viability loss, dose response, counter-screen for streptokinase expression inhibitor project, luminescence, BacTiterGlo (AID 1915).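 Also: potency for reduction of bacterial viability or growth.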 The test is classed as functional, organism-based.
Test [7] concerns Vero. Nature of the test: cells. The test is classed as functional, cell-based, Chlorocebus sabaeus. The conditions noted are these: Chlorocebus sabaeus, Vero.
Test [8] concerns the target T3, Kappa-type opioid receptor (Homo sapiens, UniProt P41145). The test is classed as functional.
In test [9] the test system is HEK293. As to the kind of experiment: NOD1 signaling inhibitors, primary screen, cell-based, luminescence, uHTS (AID 1578). The test is classed as functional. Particulars: Homo sapiens.
For test [10], the system named is HEK293. Nature of the test: cells. The test is classed as functional, cell-based. The conditions noted are these: Homo sapiens.
Test [11] deals with HEK293. As to the kind of experiment: cells. The test is classed as functional, cell-based. Particulars: Homo sapiens. This is another data set of the same source.
A short description of test [12]: A Cell Based Secondary Assay To Explore Cytotoxicity of Compounds that Sensitize Mycobacterium Tuberculosis to Beta-Lactam Antibiotics. The test is classed as functional.
The subject of test [13] is Vero. As to the kind of experiment: cells. The test is classed as functional, Chlorocebus sabaeus. Particulars: Chlorocebus sabaeus, Vero.
Test [14] can be described thus: Luminescence Cell-Based Dose Response HTS to Identify Inhibitors of 5'UTR Stem-Loop Driven Prion Protein mRNA Translation in H4 Neuroglioblastoma Cells. [Related pubchem assays: 1827 (Project Summary), 1813 (Primary HTS)]. The test is classed as functional.
Test [15] deals with Nucleotide-binding oligomerization domain-containing protein 2 (Homo sapiens, UniProt Q9HC29). Nature of the test: NOD2 signaling inhibitors, cell-based, luminescence, uHTS, HEK293 (AID 1566). The test is classed as functional.
Test [16] deals with HEK293. Nature of the test: NOD2 signaling inhibitors in MDP-stimulated cells, cell-based, uHTS, luminescence (AID 2001). The conditions noted are these: Homo sapiens. The test is classed as functional.
Test [17] can be described thus: inhibitors of SNCA 5'UTR-driven reporter translation, confirmation, H4 neuroglioma cells, luminescence (AID 1988). The test is classed as functional, cell-based.
The test system of test [18] is INS1. Nature of the test: beta cell apoptosis inhibitors, cytokine rescue, dose response, luminescence, retest (AID 449756).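 Also: cell death triggered by IL-1 beta plus TNF-alpha plus IFN-gamma mixture; protective hits raise ATP signal compared with cytokine alone wells.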 The test is classed as functional, cell-based. The conditions noted are these: Rattus norvegicus.
Test [19] is described as follows: inhibitors of firefly luciferase expression or activity, dose response, H4 neuroglioma cells, luminescence (AID 1990). The test is classed as functional, cell-based.
Test [20] concerns HEK293. Nature of the test: cells. The test is classed as functional, cell-based. The conditions noted are these: Homo sapiens. The source holds these as a separate data set.
The target of test [21] is T3, Kappa-type opioid receptor. The test is classed as functional. This is another data set of the same source.
Test [22] concerns the target Nonstructural protein 1 (Influenza A virus, UniProt Q194T2). The test is classed as functional, Influenza A virus (A/California/07/2009(H1N1)).
Test [23] deals with Hexokinase (Trypanosoma brucei, UniProt Q38C41). Nature of the test: Confirmation assay for inhibitors of Trypanosoma brucei hexokinase 1-Analogue-first series. [Related pubchem assays (depositor defined):AID1430, AID1632, AID2516, AID2560, AID2579, AID2600, AID449725, AID492951]. The test is classed as functional.
Test [24] has as its target T4, Ubiquitin-conjugating enzyme E2 N (Homo sapiens, UniProt P61088).
T4 sequence (P61088 whole entry): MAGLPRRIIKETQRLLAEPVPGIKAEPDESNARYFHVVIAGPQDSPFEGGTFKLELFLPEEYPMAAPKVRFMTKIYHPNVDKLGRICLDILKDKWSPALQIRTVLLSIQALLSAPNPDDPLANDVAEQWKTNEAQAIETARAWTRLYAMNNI
The test is classed as functional.

The target of test [25] is T4, Ubiquitin-conjugating enzyme E2 N. The test is classed as functional. This is another data set of the same source.
In test [26] the target is Bcl-2-related protein A1 (Mus musculus, UniProt Q07440). The test is classed as functional.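 Also: confirmatory dose–response counterscreen on Bfl-1, used to check hits from a UBC13 polyubiquitin inhibitor campaign.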
The target of test [27] is T2, Beta-galactosidase. Nature of the test: Dose response counterscreen for EBI2 assay utilizing the enzyme, b-galactosidase. The test is classed as functional.
Test [28] addresses T5, E3 ubiquitin-protein ligase XIAP (Homo sapiens, UniProt P98170). As to the kind of experiment: Counter Screen using XIAP-Bir3 for Chemical Antagonists of Bir1/2 domains of IAP-family anti-apoptotic proteins. [Related pubchem assays (depositor defined):AID1018, AID1449, AID1514, AID1638, AID1749, AID1750, AID488957, AID488963].
The target in test [29] is T5, E3 ubiquitin-protein ligase XIAP. As to the kind of experiment: XIAP antagonists, biochemical, IAP family, fluorescence polarization (AID 1018). The test is classed as functional. Background: Fluorescence polarisation rises when a labelled molecule tumbles more slowly, as on binding a larger partner.
Test [30] has as its target T3, Kappa-type opioid receptor. Nature of the test: SAR analysis of Antagonists of the Kappa Opioid Receptor (KOR) using an Image-Based Assay - Set 3. [Related pubchem assays (depositor defined):AID1777, AID1785]. The test is classed as functional.
The target of test [31] is Delta-type opioid receptor (Homo sapiens, UniProt P41143). Nature of the test: SAR Analysis of Antagonists of the DOR Receptor using an Image-Based Assay - Set 3. [Related pubchem assays (depositor defined):AID1777, AID1785]. The test is classed as functional.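 Also: U2OS cells expressing DOR1 and beta-arrestin GFP stimulated with 100 nM SNC80; imaging of GFP-tagged beta-arrestin moving into spots after receptor activation.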
The target in test [32] is T3, Kappa-type opioid receptor. Nature of the test: SAR analysis of small molecule antagonists of the kappa opioid receptor via a luminescent beta-arrestin assay - Set 3. [Related pubchem assays (depositor defined):AID1777, AID1778, AID1785, AID1786, AID1966, AID2133, AID2136, AID2285, AID2495]. The test is classed as functional.
Test [33] has as its target Mu-type opioid receptor (Homo sapiens, UniProt P35372). As to the kind of experiment: SAR Analysis of Antagonists of the MOR Receptor using an Image-Based Assay - Set 3. [Related pubchem assays (depositor defined):AID1777, AID1785, AID1786, AID1966, AID2133, AID2136, AID2284, AID2285, AID2420]. The test is classed as functional.

pIC50: −log10 of the molar value. Activity calls are given as the source filed them.

T5 sequence (P98170 whole entry): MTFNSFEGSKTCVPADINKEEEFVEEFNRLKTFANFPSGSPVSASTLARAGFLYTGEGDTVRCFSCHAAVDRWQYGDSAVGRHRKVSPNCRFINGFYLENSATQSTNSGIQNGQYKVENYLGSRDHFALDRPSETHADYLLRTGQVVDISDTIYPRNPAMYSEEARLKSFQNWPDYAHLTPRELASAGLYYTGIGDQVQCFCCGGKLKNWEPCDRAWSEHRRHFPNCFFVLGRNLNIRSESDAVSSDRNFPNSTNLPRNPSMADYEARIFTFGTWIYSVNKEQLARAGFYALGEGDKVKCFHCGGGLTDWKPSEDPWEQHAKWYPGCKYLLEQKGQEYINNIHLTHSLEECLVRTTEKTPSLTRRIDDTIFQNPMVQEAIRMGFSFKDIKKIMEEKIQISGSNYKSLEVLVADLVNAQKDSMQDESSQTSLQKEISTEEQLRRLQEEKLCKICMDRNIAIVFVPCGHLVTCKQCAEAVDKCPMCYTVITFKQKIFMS
T3 sequence (P41145 whole entry): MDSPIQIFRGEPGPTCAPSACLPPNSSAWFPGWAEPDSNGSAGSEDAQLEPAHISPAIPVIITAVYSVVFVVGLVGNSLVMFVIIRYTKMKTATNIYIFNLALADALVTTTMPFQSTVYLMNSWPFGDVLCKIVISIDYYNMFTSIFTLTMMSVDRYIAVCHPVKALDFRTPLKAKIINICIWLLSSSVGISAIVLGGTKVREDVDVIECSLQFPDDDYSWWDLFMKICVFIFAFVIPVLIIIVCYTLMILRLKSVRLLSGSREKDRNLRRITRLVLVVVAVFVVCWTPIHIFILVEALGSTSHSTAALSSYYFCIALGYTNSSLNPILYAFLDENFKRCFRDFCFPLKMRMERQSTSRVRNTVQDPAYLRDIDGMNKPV
Sequence of Hexokinase (Q38C41 whole entry): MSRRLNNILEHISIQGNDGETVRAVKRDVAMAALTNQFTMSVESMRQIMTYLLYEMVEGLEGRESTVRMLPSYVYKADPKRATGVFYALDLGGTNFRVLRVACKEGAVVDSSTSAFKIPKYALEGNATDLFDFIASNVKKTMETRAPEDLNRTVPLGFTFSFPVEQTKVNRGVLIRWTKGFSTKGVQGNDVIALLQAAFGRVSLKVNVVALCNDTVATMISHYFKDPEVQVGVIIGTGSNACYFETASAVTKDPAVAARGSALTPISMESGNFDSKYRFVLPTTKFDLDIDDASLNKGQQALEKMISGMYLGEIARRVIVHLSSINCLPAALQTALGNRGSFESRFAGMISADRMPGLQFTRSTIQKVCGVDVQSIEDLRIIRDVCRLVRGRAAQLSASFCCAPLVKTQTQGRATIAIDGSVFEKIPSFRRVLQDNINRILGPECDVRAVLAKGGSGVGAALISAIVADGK
T2 sequence (Q8VNN2 whole entry): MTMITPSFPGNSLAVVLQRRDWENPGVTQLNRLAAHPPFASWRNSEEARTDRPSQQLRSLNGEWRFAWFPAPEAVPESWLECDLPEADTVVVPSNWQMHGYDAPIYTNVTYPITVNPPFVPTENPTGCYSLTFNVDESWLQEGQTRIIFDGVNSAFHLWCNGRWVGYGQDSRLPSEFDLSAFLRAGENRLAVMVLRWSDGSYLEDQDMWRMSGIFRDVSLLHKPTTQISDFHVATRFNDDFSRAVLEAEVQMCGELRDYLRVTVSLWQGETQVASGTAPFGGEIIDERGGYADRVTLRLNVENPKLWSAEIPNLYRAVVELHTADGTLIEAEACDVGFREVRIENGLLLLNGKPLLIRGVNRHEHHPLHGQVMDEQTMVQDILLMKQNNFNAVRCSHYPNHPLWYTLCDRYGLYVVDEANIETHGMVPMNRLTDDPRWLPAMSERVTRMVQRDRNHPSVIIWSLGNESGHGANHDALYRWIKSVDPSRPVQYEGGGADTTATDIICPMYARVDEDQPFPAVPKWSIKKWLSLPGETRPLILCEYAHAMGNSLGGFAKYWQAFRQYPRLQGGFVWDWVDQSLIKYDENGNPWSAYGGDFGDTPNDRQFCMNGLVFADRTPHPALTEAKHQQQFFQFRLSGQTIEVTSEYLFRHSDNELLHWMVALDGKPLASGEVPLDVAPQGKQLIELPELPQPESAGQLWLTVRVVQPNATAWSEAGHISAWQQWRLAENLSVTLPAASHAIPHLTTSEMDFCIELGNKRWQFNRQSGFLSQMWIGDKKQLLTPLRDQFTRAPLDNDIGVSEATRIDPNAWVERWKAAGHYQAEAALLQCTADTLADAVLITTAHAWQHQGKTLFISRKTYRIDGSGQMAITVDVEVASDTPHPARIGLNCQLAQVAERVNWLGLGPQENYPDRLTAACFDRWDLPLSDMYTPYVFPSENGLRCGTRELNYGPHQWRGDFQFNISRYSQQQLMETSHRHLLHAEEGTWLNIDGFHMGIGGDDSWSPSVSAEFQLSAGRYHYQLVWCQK
Sequence of Delta-type opioid receptor (P41143 whole entry): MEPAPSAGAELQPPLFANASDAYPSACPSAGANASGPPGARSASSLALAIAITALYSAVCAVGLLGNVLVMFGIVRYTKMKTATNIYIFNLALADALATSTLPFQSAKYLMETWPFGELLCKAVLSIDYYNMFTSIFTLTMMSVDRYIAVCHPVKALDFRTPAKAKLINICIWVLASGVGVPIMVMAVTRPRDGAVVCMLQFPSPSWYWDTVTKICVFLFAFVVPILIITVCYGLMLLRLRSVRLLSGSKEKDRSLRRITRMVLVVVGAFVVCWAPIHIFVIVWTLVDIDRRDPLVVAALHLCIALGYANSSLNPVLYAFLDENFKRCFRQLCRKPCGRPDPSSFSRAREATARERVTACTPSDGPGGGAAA
Sequence of Mu-type opioid receptor (P35372 whole entry): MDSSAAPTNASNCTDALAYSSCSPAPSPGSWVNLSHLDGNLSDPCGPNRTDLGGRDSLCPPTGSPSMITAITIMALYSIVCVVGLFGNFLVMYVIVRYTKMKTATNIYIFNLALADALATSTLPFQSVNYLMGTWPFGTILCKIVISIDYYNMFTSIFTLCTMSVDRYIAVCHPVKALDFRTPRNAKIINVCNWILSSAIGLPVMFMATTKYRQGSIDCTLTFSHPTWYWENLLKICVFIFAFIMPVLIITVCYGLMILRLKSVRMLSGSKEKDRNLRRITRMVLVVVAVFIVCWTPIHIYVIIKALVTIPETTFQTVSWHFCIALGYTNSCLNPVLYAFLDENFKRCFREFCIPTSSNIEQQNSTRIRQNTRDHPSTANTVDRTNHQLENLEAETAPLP
Sequence of Bcl-2-related protein A1 (Q07440 whole entry): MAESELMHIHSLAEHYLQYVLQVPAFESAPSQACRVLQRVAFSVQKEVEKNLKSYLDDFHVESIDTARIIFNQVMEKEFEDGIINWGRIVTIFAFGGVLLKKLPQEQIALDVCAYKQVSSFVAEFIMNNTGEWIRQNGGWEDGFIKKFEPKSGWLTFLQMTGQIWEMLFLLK
Sequence of Nonstructural protein 1 (Q194T2 whole entry): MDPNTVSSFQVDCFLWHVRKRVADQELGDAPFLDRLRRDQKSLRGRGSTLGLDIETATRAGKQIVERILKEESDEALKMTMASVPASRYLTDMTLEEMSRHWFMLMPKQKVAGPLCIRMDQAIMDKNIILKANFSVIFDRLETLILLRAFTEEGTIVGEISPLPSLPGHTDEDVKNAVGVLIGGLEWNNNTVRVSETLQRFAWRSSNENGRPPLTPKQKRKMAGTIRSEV
Sequence of G-protein coupled receptor 55 (Q9Y2T6 whole entry, the tested form may be a part): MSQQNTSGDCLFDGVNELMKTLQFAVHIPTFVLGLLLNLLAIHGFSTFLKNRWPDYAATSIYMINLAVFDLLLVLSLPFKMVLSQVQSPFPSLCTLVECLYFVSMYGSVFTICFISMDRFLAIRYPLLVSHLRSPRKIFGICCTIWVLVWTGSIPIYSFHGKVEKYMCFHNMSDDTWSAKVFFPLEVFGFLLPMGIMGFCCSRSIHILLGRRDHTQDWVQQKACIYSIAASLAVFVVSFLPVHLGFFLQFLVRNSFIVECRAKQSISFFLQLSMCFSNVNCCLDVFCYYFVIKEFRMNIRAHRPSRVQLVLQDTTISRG
Sequence of Nucleotide-binding oligomerization domain-containing protein 2 (Q9HC29 whole entry, the tested form may be a part): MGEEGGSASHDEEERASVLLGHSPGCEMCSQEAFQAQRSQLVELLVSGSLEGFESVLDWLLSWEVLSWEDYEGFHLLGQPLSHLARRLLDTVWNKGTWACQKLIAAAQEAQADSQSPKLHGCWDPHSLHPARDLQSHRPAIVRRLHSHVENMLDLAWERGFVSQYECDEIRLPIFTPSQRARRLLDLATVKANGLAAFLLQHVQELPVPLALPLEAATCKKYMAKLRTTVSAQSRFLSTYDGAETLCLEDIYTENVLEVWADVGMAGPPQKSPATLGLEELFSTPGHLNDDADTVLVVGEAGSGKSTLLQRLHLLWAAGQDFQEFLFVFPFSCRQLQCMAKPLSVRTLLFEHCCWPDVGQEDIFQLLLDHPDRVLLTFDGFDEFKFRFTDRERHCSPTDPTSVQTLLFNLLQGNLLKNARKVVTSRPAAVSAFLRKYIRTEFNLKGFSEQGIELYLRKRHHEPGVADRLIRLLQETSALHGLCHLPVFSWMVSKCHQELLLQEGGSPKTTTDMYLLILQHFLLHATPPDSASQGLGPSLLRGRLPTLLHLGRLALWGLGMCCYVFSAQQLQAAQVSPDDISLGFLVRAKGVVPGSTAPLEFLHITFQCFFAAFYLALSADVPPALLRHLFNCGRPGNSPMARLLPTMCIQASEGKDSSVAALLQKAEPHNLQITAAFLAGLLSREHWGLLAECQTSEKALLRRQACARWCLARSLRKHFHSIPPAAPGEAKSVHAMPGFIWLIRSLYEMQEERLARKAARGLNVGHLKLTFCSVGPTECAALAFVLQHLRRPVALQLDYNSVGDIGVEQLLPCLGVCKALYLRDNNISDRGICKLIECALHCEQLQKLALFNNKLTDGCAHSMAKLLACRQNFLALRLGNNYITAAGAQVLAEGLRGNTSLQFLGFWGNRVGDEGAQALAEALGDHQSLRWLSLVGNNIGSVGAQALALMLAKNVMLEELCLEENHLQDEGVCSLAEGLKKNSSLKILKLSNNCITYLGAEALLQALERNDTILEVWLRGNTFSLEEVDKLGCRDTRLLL

In the case of `CCS(=O)(=O)c1ccc(-c2csc(-c3ccc(Cl)cc3)n2)c(Cl)c1Cl`, the IC50 (commonly the concentration needed to halve the response being measured) in [1] is 1.86 µM (active); in [2], 5.51 µM (active); in [3], 2.71 µM (active).

In the case of `C/C(=N\NC(=O)c1cc(Br)ccc1O)c1ccccn1`, the EC50 (commonly the concentration that produces a half-maximal response) in test [4] was 0.43 µM (active); in test [5], > 31.5 µM (inactive); in [6] it was 3.7 µM (active); in test [9], > 20 µM (inactive); in [14] it was 10.3 µM (active); in [15] it was > 20 µM (inactive). The EC50 in test [17] was 5.29 µM (active); in [19] it was 10.2 µM (inconclusive). Moreover, the IC50 was > 25 µM (active) in [7]; 17.6 µM (active) in [10]; > 20 µM (inactive) in [11]; 6.47 µM (inactive) in [16]; > 20 µM (inactive) in test [20]; 3.54 µM (active) in [21]. Moreover, the IC50 in [22] is 30.4 µM (active). Further, the pIC50 (in general, the IC50 on a negative log10 scale, so that one unit is a factor of ten) in test [8] was below 4.49. The CC50 (as a rule, the concentration that lowers cell viability or growth by half) is 3.47 µM (active) in [12] and 3.81 µM (active) in test [13]. Further, the AC50 (usually the midpoint of the concentration-response curve, whichever way the signal moves) in test [18] is 1.74 µM (active).

On to `CN(C)c1ccc(C(=O)Nc2cc(Cl)ccc2C(=O)O)cc1`, for which, in test [23], the IC50 was > 25 µM (inactive).

With `Cc1ccc(N(C(=O)c2snc(C(N)=O)c2N)C(C(=O)NC2CCCC2)c2ccc(C)o2)cc1` (stereo not given), the IC50 in [24] is 19.9 µM (active); in test [25] it was 10.4 µM (active); in test [26], > 20 µM (inactive); in test [27], > 80 µM (inactive).

Turning to `COc1ccc(CCC(=O)OCC(=O)Nc2ccc(C)c(S(=O)(=O)N(C)C)c2)cc1`, the IC50 in test [28] is > 100 µM (inactive); in test [29] it was > 100 µM (not active).

As to `COc1ccc(S(=O)(=O)NCc2ccc(C(=O)NCCN3Cc4ccccc4C3)cc2)cc1`, the IC50 is > 32 µM (inactive) in test [30], > 32 µM (inactive) in test [31], > 20 µM (inactive) in test [32] and > 32 µM (inactive) in test [33].

For `Cc1ccc(CN(CCNC(=O)c2ccc(CNS(=O)(=O)c3cccc(C)c3)cc2)C(C)C)cc1`, the IC50 in test [30] was 0.675 µM (active); in [31] it was > 32 µM (inactive); in test [32], 1.83 µM (active); in test [33], > 32 µM (inactive).

Turning to `O=C(Cn1sc2ccccc2c1=O)NC1CCCCC1`, in test [23], the IC50 is 9.35 µM (active).

Regarding `O=C(O)C1C2C=CC(C2)C1C(=O)Nc1ccc(C(=O)N2CCCCC2)cc1` (stereo not given), the IC50 was > 100 µM (inactive) in test [28] and > 100 µM (not active) in test [29].

These data come from ChEMBL document CHEMBL1201862, “PubChem BioAssay data set” (2004).
